The text below walks through data of US7074789B2, “Kinase inhibitors” (Amgen Inc., priority 1999, dated 2006).

Read-outs that look alike come from different tables or passages of the source.

Assay type in all cases: biochemical
In one test the target is T1, Lck (Homo sapiens, UniProt P06239).
T1 construct: Kinases are expressed as either kinase domains or full length constructs; made in house
The test is described as follows: Kinase inhibition assay (33P transfer), Lck. As to conditions: read-out: Lck-1. The method in brief: (§1)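 33P-ATP transfer to coated synthetic polymer substrates; acid wash (0.5% H3PO4), scintillant, liquid scintillation count. Enzymes: His- or GST-fusion kinases from E. coli or High Five insect cells.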

Another test has as its target T2, AKT (Homo sapiens, UniProt Q9Y243).
T2 construct: Kinases are expressed as either kinase domains or full length constructs; made in house
In words: Kinase inhibition assay (33P transfer), AKT. Particulars: Table 2, kinase inhibition class; read-out: AKT3-1. The method in brief: as §1

For a further test, the target named is T3, ErbB2 (Homo sapiens, UniProt P04626).
T3 construct: Kinases are expressed as either kinase domains or full length constructs; made in house
The test is described as follows: Kinase inhibition assay (33P transfer), ErbB2. As to conditions: read-out: ErbB2-2. The method in brief:
(§2)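 Radiometric format: recombinant tagged kinase (catalytic domain or whole protein, sometimes combined with regulatory polypeptides) phosphorylates immobilised poly(Glu,Tyr) 4:1 or poly(Arg,Ser) 3:1 using [33P]ATP. Wells are washed in 0.5% phosphoric acid, then counted. IC50 is taken where substrate labelling falls by half.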

The next test concerns the target T4, c-Met (Homo sapiens, UniProt P08581).
T4 construct: Kinases are expressed as either kinase domains or full length constructs; made in house
In words: Kinase inhibition assay (33P transfer), c-Met. Particulars: Table 2, kinase inhibition class; read-out: Met-1. An outline of the steps:
as §2

The next test concerns the target T5, Zap-70 (Homo sapiens, UniProt P43403).
T5 construct: Kinases are expressed as either kinase domains or full length constructs; made in house
T5 sequence (P43403 1-619): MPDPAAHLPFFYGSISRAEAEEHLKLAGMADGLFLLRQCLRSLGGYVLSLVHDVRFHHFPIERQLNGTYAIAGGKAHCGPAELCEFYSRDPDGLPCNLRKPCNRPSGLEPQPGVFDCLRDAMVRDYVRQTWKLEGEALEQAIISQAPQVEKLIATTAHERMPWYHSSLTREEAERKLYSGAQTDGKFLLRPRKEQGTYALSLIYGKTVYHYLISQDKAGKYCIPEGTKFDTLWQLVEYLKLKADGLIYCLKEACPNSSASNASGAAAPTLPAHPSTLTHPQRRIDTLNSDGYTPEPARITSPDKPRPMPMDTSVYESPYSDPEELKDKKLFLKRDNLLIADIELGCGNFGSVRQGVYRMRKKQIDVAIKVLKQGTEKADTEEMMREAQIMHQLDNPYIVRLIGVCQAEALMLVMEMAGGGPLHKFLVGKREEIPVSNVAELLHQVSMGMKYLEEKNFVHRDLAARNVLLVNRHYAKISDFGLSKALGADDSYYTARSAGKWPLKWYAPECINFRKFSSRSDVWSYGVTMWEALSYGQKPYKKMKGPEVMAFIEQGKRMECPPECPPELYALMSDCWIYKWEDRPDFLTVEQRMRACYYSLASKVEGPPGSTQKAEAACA
The test is described as follows: Kinase inhibition assay (33P transfer), Zap-70. Particulars: read-out: Zap-1. The method in brief:
as §1

In the next test the target is T6, Itk (Homo sapiens, UniProt Q08881).
T6 construct: Kinases are expressed as either kinase domains or full length constructs; made in house
T6 sequence (Q08881 1-620): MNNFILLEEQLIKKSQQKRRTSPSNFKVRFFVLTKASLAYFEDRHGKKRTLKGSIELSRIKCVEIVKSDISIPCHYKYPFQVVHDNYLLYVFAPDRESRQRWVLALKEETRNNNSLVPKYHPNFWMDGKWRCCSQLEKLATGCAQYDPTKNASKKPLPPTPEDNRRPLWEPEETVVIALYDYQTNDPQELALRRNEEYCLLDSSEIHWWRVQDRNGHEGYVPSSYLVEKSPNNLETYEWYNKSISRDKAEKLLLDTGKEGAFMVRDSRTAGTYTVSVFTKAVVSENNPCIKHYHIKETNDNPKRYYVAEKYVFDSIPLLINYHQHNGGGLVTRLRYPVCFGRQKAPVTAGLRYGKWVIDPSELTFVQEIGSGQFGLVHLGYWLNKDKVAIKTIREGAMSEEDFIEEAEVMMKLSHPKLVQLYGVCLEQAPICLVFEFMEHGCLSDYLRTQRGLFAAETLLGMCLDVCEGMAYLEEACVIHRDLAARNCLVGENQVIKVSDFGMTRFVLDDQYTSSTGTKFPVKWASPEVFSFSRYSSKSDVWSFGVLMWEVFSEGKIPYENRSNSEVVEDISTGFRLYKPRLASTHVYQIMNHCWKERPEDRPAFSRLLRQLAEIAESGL
In words: Kinase inhibition assay (33P transfer), Itk. As to conditions: read-out: Itk-1. The method in brief:
as §2

In the next test the target is T7, Kdr (Homo sapiens, UniProt P35968).
T7 construct: Kinases are expressed as either kinase domains or full length constructs; made in house
In words: Kinase inhibition assay (33P transfer), Kdr. An outline of the steps:
as §1

For another test, the target named is T8, PDGFRB (Homo sapiens, UniProt P09619).
T8 construct: Kinases are expressed as either kinase domains or full length constructs; made in house
In words: Kinase inhibition assay (33P transfer), PDGFRB. Particulars: read-out: PDGFRB-1.

Another test addresses T9, IGFR-1 (Homo sapiens, UniProt P08069).
T9 construct: Kinases are expressed as either kinase domains or full length constructs; made in house
The test is described as follows: Kinase inhibition assay, IGFR-1 (Table 2). As to conditions: Table 2, kinase inhibition class.

For another test, the target named is T10, EGFR (Homo sapiens, UniProt P00533).
T10 construct: Kinases are expressed as either kinase domains or full length constructs; made in house
The test is described as follows: Kinase inhibition assay (33P transfer), EGFR. Particulars: Table 2, kinase inhibition class; read-out: EGFR-1. The method in brief:
as §2

T7 sequence (P35968 20-1356, species assumed): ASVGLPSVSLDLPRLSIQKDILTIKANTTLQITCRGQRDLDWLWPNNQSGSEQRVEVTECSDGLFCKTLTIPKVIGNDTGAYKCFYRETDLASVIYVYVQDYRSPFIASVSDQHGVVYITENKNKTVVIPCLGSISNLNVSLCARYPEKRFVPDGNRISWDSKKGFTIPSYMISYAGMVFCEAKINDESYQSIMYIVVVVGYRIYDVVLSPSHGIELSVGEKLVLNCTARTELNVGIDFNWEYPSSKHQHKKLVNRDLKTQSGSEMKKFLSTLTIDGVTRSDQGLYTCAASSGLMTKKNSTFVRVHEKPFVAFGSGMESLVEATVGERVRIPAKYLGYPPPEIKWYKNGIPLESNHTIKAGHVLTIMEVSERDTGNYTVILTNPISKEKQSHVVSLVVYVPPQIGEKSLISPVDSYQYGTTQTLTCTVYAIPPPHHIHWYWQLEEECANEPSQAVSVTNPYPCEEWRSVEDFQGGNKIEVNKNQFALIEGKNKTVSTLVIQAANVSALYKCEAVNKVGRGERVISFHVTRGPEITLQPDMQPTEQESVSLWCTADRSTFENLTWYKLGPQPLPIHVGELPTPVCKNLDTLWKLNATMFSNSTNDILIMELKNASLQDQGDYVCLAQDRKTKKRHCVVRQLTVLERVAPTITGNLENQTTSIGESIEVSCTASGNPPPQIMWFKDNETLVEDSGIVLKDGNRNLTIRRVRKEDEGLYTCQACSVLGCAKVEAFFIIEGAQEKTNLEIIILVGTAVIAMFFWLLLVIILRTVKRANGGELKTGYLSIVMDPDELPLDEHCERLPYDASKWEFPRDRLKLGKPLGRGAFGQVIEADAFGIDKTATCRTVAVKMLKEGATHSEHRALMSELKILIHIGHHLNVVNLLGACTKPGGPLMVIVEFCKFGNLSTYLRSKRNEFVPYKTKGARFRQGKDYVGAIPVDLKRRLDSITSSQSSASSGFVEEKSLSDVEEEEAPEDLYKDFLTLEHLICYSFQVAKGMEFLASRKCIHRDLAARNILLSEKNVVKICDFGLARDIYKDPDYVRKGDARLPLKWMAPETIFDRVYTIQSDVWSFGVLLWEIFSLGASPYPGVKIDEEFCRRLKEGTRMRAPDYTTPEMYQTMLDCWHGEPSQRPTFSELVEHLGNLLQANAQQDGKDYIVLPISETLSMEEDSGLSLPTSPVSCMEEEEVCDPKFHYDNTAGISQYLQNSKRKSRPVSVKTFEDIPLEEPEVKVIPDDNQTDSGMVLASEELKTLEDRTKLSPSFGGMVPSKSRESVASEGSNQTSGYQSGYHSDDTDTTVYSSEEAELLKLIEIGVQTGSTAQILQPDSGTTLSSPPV
T2 sequence (Q9Y243 whole entry, the tested form may be a part): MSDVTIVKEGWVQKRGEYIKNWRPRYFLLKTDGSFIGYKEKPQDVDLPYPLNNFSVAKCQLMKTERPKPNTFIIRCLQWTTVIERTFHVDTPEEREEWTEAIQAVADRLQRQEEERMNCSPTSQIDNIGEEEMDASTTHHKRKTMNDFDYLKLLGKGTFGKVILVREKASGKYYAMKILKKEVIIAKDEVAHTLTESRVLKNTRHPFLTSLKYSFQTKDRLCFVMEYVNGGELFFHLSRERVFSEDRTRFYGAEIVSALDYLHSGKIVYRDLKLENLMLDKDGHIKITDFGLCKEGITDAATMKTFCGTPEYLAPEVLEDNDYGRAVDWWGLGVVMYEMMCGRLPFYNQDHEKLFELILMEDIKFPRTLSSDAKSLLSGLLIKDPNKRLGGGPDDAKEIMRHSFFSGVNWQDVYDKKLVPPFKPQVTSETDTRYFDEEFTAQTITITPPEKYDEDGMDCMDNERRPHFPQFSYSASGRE
T1 sequence (P06239 whole entry, species assumed, the tested form may be a part): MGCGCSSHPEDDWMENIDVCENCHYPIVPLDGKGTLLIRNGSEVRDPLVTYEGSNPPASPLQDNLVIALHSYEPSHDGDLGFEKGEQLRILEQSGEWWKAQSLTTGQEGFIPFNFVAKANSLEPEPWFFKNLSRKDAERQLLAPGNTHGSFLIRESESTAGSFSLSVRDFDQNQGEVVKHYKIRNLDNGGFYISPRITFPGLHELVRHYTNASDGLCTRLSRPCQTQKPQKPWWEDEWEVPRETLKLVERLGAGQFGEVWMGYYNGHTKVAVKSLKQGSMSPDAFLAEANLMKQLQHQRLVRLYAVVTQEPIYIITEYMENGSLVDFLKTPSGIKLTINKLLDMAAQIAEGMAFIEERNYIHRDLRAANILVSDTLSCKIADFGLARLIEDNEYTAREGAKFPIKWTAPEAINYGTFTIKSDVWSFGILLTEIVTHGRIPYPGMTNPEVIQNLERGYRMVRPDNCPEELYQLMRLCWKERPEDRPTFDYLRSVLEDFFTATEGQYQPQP
T4 sequence (P08581 25-1390): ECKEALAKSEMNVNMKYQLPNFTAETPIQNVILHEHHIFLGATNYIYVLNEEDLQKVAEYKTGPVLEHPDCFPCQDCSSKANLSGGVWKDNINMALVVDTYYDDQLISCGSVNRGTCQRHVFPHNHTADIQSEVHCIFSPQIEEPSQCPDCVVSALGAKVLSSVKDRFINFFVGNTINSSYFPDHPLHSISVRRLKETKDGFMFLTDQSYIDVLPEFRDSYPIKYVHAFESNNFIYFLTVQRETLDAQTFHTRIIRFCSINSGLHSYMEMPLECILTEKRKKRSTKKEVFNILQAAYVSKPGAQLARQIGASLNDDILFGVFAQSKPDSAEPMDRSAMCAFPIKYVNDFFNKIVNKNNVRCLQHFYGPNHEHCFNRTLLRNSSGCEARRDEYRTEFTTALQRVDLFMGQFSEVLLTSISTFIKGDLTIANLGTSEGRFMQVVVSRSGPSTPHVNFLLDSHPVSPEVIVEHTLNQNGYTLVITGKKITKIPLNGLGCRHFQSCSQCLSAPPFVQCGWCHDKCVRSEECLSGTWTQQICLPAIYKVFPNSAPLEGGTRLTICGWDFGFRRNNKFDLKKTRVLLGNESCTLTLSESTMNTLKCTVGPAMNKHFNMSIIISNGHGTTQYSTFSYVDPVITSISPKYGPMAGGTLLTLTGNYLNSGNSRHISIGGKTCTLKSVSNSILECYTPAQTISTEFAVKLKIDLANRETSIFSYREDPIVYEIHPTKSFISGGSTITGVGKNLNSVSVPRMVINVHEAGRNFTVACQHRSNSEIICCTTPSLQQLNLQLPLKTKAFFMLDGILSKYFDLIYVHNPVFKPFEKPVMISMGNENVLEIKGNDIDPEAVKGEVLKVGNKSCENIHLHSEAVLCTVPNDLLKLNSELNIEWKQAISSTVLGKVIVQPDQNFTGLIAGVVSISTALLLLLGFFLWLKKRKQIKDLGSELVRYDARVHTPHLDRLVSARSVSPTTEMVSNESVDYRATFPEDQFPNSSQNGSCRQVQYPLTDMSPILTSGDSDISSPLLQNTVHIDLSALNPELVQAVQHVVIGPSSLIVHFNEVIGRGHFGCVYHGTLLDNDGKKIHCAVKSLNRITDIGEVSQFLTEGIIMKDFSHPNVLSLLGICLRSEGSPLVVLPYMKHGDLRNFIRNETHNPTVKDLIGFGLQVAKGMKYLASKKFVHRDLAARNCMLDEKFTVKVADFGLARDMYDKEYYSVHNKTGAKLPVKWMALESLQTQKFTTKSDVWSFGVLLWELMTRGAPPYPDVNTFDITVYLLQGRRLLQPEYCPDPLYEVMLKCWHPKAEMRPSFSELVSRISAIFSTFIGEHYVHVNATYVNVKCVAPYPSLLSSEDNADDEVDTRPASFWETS
T3 sequence (P04626 23-1255, species assumed): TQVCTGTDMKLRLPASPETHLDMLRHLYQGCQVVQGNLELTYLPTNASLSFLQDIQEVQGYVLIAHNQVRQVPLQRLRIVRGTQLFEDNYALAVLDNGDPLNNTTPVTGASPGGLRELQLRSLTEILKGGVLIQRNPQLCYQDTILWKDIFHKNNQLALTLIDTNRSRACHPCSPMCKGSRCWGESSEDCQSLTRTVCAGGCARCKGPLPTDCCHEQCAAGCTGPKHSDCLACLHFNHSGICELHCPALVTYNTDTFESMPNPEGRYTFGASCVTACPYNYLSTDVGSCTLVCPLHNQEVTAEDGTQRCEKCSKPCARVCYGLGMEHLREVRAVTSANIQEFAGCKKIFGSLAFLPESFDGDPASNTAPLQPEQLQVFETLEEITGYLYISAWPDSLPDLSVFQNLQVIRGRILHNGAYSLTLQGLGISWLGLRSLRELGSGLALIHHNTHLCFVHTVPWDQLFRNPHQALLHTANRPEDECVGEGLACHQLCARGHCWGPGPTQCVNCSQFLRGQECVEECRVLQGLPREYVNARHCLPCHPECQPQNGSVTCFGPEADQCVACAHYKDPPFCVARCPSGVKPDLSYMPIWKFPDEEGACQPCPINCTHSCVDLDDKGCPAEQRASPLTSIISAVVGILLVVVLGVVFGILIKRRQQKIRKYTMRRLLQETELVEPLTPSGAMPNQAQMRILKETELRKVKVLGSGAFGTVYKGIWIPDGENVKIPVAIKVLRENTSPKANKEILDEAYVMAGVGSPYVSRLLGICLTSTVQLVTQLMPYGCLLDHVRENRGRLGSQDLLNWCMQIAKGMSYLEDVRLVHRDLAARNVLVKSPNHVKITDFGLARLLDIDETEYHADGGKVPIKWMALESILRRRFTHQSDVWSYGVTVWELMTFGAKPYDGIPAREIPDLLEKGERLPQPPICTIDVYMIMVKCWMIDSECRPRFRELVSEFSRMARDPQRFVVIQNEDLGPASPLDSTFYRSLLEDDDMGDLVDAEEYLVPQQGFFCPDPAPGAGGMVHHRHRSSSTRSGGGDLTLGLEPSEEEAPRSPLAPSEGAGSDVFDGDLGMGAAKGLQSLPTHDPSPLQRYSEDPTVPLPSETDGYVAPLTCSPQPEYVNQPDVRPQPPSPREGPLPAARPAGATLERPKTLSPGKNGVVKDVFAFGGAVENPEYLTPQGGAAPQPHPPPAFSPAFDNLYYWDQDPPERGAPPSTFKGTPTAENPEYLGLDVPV

With `C=CCNc1nc2ccccc2n1-c1ncnc(Nc2cc(OC)c(OC)c(OC)c2)n1` [Compound 574], the IC50 at Lck was < 0.923 µM; on AKT, > 10.4 µM; at ErbB2, > 10.4 µM; on c-Met it was > 10.4 µM; at Zap-70, > 10.4 µM; at Itk, > 10.4 µM. Moreover, the IC50 at Kdr (read-out: KDR-1) is < 0.923 µM; at PDGFRB it was < 0.923 µM; against IGFR-1, 0.923 to 5.54 µM; on EGFR, > 10.4 µM.

With `CNS(=O)(=O)Cc1ccc(Nc2ncnc(Nc3ccc4c(cnn4Cc4ccccc4)c3)n2)cc1` [Compound 736], the IC50 on Lck, at AKT, on ErbB2, on c-Met, at Zap-70 and at Itk was 0.799 to 4.79 µM each time. Moreover, the IC50 at Kdr (read-out: KDR-1), on PDGFRB, against IGFR-1 and at EGFR was 0.799 to 4.79 µM throughout.

As for `CN(c1ccc(F)c(Cl)c1)c1ncnc(Nc2cccc(Br)c2)n1` [Compound 713], the IC50 at Lck, at AKT, at ErbB2, at c-Met, at Zap-70 and at Itk was > 11 µM each time. The IC50 at Kdr (read-out: KDR-1) was 0.979 to 5.87 µM; on PDGFRB it was > 11 µM; against IGFR-1, > 11 µM; on EGFR, > 11 µM.

In the case of `COC(=O)Cc1cccc(Nc2ncnc(Nc3ccc(C)c(O)c3)n2)c1` [Compound 542], the IC50 was 1.09 to 6.57 µM on Lck; > 12.3 µM on AKT; 1.09 to 6.57 µM on ErbB2; 9.58 to 12.3 µM on c-Met; > 12.3 µM at Zap-70; 1.09 to 6.57 µM on Itk. The IC50 was < 1.09 µM at Kdr (read-out: KDR-1), 1.09 to 6.57 µM on PDGFRB, 1.09 to 6.57 µM against IGFR-1 and 1.09 to 6.57 µM on EGFR.

Regarding `CN(c1cccc(Cl)c1)c1ncnc(Nc2ncccn2)n1` [Compound 757], the IC50 on Lck, on AKT, at ErbB2, at c-Met, at Zap-70 and at Itk was > 14.3 µM each time. Besides, the IC50 on Kdr (read-out: KDR-1) is > 14.3 µM; on PDGFRB it was > 14.3 µM; on IGFR-1, > 14.3 µM; on EGFR, < 1.27 µM.

On to `COc1cc(Nc2ncnc(-n3c(NCc4ccc(O)cc4)nc4ccccc43)n2)cc(OC)c1OC` [Compound 561], for which the IC50 is < 0.801 µM at Lck; > 9.01 µM at AKT; > 9.01 µM at ErbB2; > 9.01 µM on c-Met; > 9.01 µM at Zap-70; > 9.01 µM at Itk. Also, the IC50 was < 0.801 µM on Kdr (KDR-1), < 0.801 µM at PDGFRB, > 9.01 µM against IGFR-1 and > 9.01 µM at EGFR.

Consider `CCN(CC)c1ccc(Nc2ncnc(N3CCCc4cc(C)ccc43)n2)cc1` [Compound 779], for which the IC50 on Lck, on AKT, at ErbB2, on c-Met, on Zap-70 and on Itk was > 11.6 µM each time. The IC50 at Kdr (read-out: KDR-1), at PDGFRB, against IGFR-1 and at EGFR was > 11.6 µM each time.

As to `COc1ccc(Nc2ncnc(N3CCCc4ccc(C(F)(F)F)cc43)n2)cc1OC` [Compound 535], the IC50 was 0.927 to 5.56 µM at Lck; > 10.4 µM at AKT; < 0.927 µM at ErbB2; 0.927 to 5.56 µM on c-Met; > 10.4 µM at Zap-70; > 10.4 µM on Itk. The IC50 on Kdr (read-out: KDR-1) was 0.927 to 5.56 µM; at PDGFRB, 5.56 to 8.11 µM; against IGFR-1 it was > 10.4 µM; on EGFR, < 0.927 µM.

Consider `CN(c1cccc(Cl)c1)c1ncnc(Nc2cc(-c3ccco3)[nH]n2)n1` [Compound 753], for which the IC50 at Lck is 1.09 to 6.53 µM; at AKT, > 12.2 µM; on ErbB2, 1.09 to 6.53 µM; on c-Met it was 1.09 to 6.53 µM; at Zap-70 it was 1.09 to 6.53 µM; at Itk it was 1.09 to 6.53 µM. Moreover, the IC50 on Kdr (read-out: KDR-1) is 1.09 to 6.53 µM; on PDGFRB, 1.09 to 6.53 µM; against IGFR-1 it was 1.09 to 6.53 µM; on EGFR, < 1.09 µM.

Take `c1ccc(Cn2ncc3cc(Nc4ncnc(Nc5ccc(N6CCCCC6)cc5)n4)ccc32)cc1` [Compound 735]: the IC50 was > 9.44 µM at Lck; 5.04 to 7.34 µM on AKT; 0.839 to 5.04 µM on ErbB2; 7.34 to 9.44 µM at c-Met; 5.04 to 7.34 µM at Zap-70; 7.34 to 9.44 µM at Itk. The IC50 on Kdr (read-out: KDR-1) was 0.839 to 5.04 µM; on PDGFRB it was > 9.44 µM; at IGFR-1 it was 7.34 to 9.44 µM; at EGFR it was < 0.839 µM.

In the case of `COc1cc(Nc2ncnc(-c3cccnc3N)n2)cc(OC)c1OC` [Compound 1091], the IC50 is 1.13 to 6.77 µM on Lck; 6.77 to 9.88 µM at AKT; 1.13 to 6.77 µM on ErbB2; 9.88 to 12.7 µM on c-Met; > 12.7 µM on Zap-70; 9.88 to 12.7 µM on Itk. For the same compound, the IC50 is < 1.13 µM on Kdr (read-out: KDR-1), < 1.13 µM at PDGFRB, > 12.7 µM against IGFR-1 and > 12.7 µM on EGFR.

`Cc1ccc2c(c1)CCCN2c1ncnc(NCCN2CCOCC2)n1` [Compound 776]: the IC50 on Lck, at AKT, at ErbB2, at c-Met, on Zap-70 and on Itk was > 12.7 µM in each case. Also, the IC50 on Kdr (read-out: KDR-1), on PDGFRB, against IGFR-1 and at EGFR was > 12.7 µM throughout.

On to `c1ccc(Cn2ncc3cc(Nc4ncnc(Nc5ccc(N6CCOCC6)cc5)n4)ccc32)cc1` [Compound 729], for which the IC50 on Lck lay in the range of 0.836 to 5.02 µM; at AKT it was 7.31 to 9.4 µM; at ErbB2, 0.836 to 5.02 µM; at c-Met, 0.836 to 5.02 µM; at Zap-70, 5.02 to 7.31 µM; at Itk, 5.02 to 7.31 µM. The IC50 at Kdr (read-out: KDR-1) is 0.836 to 5.02 µM; at PDGFRB, 0.836 to 5.02 µM; on IGFR-1, 0.836 to 5.02 µM; at EGFR it was < 0.836 µM.

Consider `COc1ccc(Nc2ncnc(N(C)c3ccc(Cl)c(Cl)c3)n2)cc1OC` [Compound 758], for which the IC50 on Lck is < 0.985 µM; at AKT it was > 11.1 µM; on ErbB2, < 0.985 µM; at c-Met, < 0.985 µM; at Zap-70 it was > 11.1 µM; on Itk, > 11.1 µM. Further, the IC50 was 0.985 to 5.91 µM on Kdr (read-out: KDR-1), < 0.985 µM at PDGFRB, 5.91 to 8.61 µM on IGFR-1 and < 0.985 µM at EGFR.
